# Results as given in patent US20260116868A1 (Arcus Biosciences, Inc., priority 2023, published 2026).
# Target: T1, Cbl-b (Homo sapiens, UniProt Q13191)
# T1 construct: biotin (biotinylated protein)
# Assay: Cbl-b probe displacement HTRF binding assay
# Settings: 0.4 nM Cbl-b, 150 nM BODIPY probe
# Procedure, shortened: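 Binding IC50 from four-parameter fit of HTRF signal loss, normalised to DMSO (0%) and no-protein (100%) wells. Biotinylated Cbl-b 0.4 nM was preincubated 60 min with compound (20-point 1:2 dilution) before 15 min with 150 nM BODIPY probe; Tb-streptavidin detection.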
# T1 sequence (Q13191 whole entry, species assumed): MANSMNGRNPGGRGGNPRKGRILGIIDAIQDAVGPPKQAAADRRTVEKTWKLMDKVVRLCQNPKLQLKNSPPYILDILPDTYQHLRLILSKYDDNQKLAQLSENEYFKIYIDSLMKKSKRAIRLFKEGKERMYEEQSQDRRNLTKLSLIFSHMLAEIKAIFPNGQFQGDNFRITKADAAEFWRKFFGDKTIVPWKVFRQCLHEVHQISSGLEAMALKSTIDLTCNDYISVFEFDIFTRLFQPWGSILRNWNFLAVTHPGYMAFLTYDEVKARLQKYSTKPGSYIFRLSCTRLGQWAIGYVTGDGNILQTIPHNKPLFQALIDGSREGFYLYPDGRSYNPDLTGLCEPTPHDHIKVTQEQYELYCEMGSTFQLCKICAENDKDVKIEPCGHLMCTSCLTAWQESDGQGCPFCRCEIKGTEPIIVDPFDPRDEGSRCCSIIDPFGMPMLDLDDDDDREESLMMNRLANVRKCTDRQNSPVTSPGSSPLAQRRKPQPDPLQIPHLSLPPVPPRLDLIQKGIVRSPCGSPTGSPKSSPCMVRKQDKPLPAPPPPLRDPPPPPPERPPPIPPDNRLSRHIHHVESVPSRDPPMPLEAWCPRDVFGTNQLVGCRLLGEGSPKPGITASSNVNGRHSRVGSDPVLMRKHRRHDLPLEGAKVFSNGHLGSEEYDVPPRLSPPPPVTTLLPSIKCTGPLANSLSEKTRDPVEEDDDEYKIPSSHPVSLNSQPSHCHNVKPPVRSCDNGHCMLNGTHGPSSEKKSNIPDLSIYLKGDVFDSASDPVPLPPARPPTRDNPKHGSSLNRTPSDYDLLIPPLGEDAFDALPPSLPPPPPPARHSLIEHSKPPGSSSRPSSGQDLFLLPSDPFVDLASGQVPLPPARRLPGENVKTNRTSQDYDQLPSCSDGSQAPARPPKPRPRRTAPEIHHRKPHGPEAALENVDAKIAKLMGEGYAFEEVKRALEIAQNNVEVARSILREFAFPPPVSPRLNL
row,IC50 [nM],Compound
1,< 100,"C[C@H]1CCCN(Cc2cc(C(=O)Nc3cc(-c4ccc(F)cc4-c4nncn4C)cc(C4CC4)n3)c(=O)n(CC(F)(F)F)c2)C1 [Example 58, N-[6-cyclopropyl-4-[4-fluoro-2-(4-methyl-1,2,4-triazol-3-yl)phenyl]pyridin-2-yl]-5-[[(3S)-3-methylpiperidin-1-yl]methyl]-2-oxo-1-(2,2,2-trifluoroethyl)pyridine-3-carboxamide]"
2,< 100,"Cn1cnnc1-c1cc(F)ccc1-c1cc(NC(=O)c2cc(CNCCC(F)(F)F)cn(C3CC3)c2=O)nc(C2CC2)c1 [Example 15, N-{6-cyclopropyl-4-[4-fluoro-2-(4-methyl-4H-1,2,4-triazol-3-yl)phenyl]-2-pyridyl}-1-cyclopropyl-2-oxo-5-[(3,3,3-trifluoropropylamino)methyl]-1,2-dihydronicotinamide]"
3,< 100,"CC(C)Oc1cc(-c2c(F)cc(C#N)cc2C(=O)N2CC(F)(F)C2)cc(NC(=O)c2cc(CNC[C@@H]3CCCO3)cn(C3CC3)c2=O)n1 [Example 101, N-[4-[4-cyano-2-(3,3-difluoroazetidine-1-carbonyl)-6-fluorophenyl]-6-propan-2-yloxypyridin-2-yl]-1-cyclopropyl-2-oxo-5-[[[(2S)-oxolan-2-yl]methylamino]methyl]pyridine-3-carboxamide]"
4,< 100,CC(C)Nc1cc(-c2ccc(Cl)cc2C(=O)N2CC(F)(F)C2)cc(NC(=O)c2cc(CN[C@@H](C)C3CCC3)cn(C3CC3)c2=O)n1 [Example 221]
5,< 100,COCCNCc1cc(C(=O)Nc2cc(-c3ccc(F)cc3C(=O)N3CC(F)C3)cc(C3CC3)n2)c(=O)n(C2CC2)c1 [Example 404]
6,< 100,N#Cc1ccc(-c2cc(NC(=O)c3cc(CNC[C@@H]4CCOC4)cn(C4CC4)c3=O)nc(C3CC3)c2)c(C(=O)N2CC(F)(F)C2)c1 [Example 412]
7,< 100,"COc1ccc(-c2cc(NC(=O)c3cc(CN[C@@H](C)[C@H](C)OC)cn(C4CC4)c3=O)nc(C3CC3)c2)c(C(=O)N2CC(F)(F)C2)c1 [Example 152, N-(6-Cyclopropyl-4-{2-[(3,3-difluoro-1-azetidinyl)carbonyl]-4-methoxyphenyl}-2-pyridyl)-1-cyclopropyl-5-{[(1S,2S)-2-methoxy-1-methylpropylamino]methyl}-2-oxo-1,2-dihydronicotinamide]"
8,< 100,CO[C@@H](C)CNCc1cc(C(=O)Nc2cc(-c3ccc(C#N)cc3C(=O)N3CC(F)(F)C3)cc(N(C)C)n2)c(=O)n(C2CC2)c1 [Example 191]
9,< 100,C[C@H](N[C@@H](C)C1CC1)c1cc(C(=O)Nc2cc(-c3ccc(C#N)cc3C(=O)N3CC(F)(F)C3)cc(C3CC3)n2)c(=O)n(C2CC2)c1 [Example 328]
10,< 100,COc1ccc(-c2cc(NC(=O)c3cc(CNC[C@@H]4CCCO4)cn(C)c3=O)nc(C3CC3)c2)c(C(=O)N2CC(F)C2)c1 [Example 319]
11,< 100,COc1ccc(-c2cc(NC(=O)c3cc(CN[C@@H](C)C4CCC4)cn(C4CC4)c3=O)nc(OCC(F)F)c2)c(C(=O)N2CC(F)(F)C2)c1 [Example 343]
12,< 100,N#Cc1ccc(-c2cc(NC(=O)c3cc(CNC[C@@H]4CCCO4)cn(C4CC4)c3=O)nc(OC(F)F)c2)c(C(=O)N2CC(F)(F)C2)c1 [Example 341]
13,< 100,N#Cc1ccc(-c2cc(NC(=O)c3cc(CNCCCF)cn(C4CC4)c3=O)nc(C3CC3)c2)c(C(=O)N2CC(F)(F)C2)c1 [Example 375]
14,< 100,"CO[C@@H](C)CNCc1cc(C(=O)Nc2cc(-c3ccc(Cl)cc3C(=O)N3CCC3)cc(C3CC3)n2)c(=O)n(C2CC2)c1 [Example 156, N-(4-{2-[(1-Azetidinyl)carbonyl]-4-chlorophenyl}-6-cyclopropyl-2-pyridyl)-1-cyclopropyl-5-{[(S)-2-methoxypropylamino]methyl}-2-oxo-1,2-dihydronicotinamide]"

# Test system: Jurkat cells
# Assay: IL-2 secretion assay in Jurkat cells activated with CD3/CD28 T Cell Activator
# Format: cell-based
# Settings: Homo sapiens; Jurkat cells, CD3/CD28 T Cell Activator, 24 h, IL-2 AlphaLISA; read-out: IL-2 Secretion (EC50)
# Method: Certain compounds were also evaluated in an IL-2 secretion assay. On the day of the assay, a 16 point, 1:2 master serial dilution of each compound was prepared in Opti-MEM to span a final concentration range of 10 μM to 300 pM. Assays were set up in CORNING® tissue culture-treated 384-well microplates containing 60 nL of each dilution. Jurkat cells grown in RPMI-1640 supplemented with 10% FBS, 1% Glutamax, and 1% Pen/Strep were collected, resuspended in Opti-MEM. 50,000 cells/well and added to the compound plates. After a short spin (1200 rpm for 1 min), the plates were incubated at 37° C. for 1 hour. The cells were activated by adding 15 μL of IMMUNOCULT™ Human CD3/CD28 T Cell Activator (STEMCELL Technologies) diluted in Opti-MEM. After 24 h of incubation at 37° C., aliquots of culture supernatants were transferred to OptiPlate-384 (PerkinElmer) microplates. The level of IL-2 secretion in the supernatants was then determined using the IL-2 (human) AlphaLISA Detection Kit (PerkinElmer) according to the manufacturer's recommendations. The AlphaLISA signal was measured using an EnVision plate reader (PerkinElmer). EC50 values were determined by fitting the data to a standard 4-parameter logistic equation. See Table 7 for data for select compounds (IL-2 Secretion (EC50)).
row,EC50 [nM],Compound
1,< 100,"C[C@H]1CCCN(Cc2cc(C(=O)Nc3cc(-c4ccc(F)cc4-c4nncn4C)cc(C4CC4)n3)c(=O)n(CC(F)(F)F)c2)C1 [Example 58, N-[6-cyclopropyl-4-[4-fluoro-2-(4-methyl-1,2,4-triazol-3-yl)phenyl]pyridin-2-yl]-5-[[(3S)-3-methylpiperidin-1-yl]methyl]-2-oxo-1-(2,2,2-trifluoroethyl)pyridine-3-carboxamide]"
2,< 100,"Cn1cnnc1-c1cc(F)ccc1-c1cc(NC(=O)c2cc(CNCCC(F)(F)F)cn(C3CC3)c2=O)nc(C2CC2)c1 [Example 15, N-{6-cyclopropyl-4-[4-fluoro-2-(4-methyl-4H-1,2,4-triazol-3-yl)phenyl]-2-pyridyl}-1-cyclopropyl-2-oxo-5-[(3,3,3-trifluoropropylamino)methyl]-1,2-dihydronicotinamide]"
3,> 5000,"CO[C@@H](C)CNCc1cc(C(=O)Nc2cc(-c3ccc(OC(F)F)cc3C(=O)N3CC(F)(F)C3)cc(C3CC3)n2)c(=O)n(C)c1 [Example 87, N-[6-cyclopropyl-4-[2-(3,3-difluoroazetidine-1-carbonyl)-4-(difluoromethoxy)phenyl]pyridin-2-yl]-5-[[[(2S)-2-methoxypropyl]amino]methyl]-1-methyl-2-oxopyridine-3-carboxamide]"
4,< 100,"O=C(Nc1cc(-c2ccc(Cl)cc2C(=O)N2CC(F)(F)C2)cc(C2CC2)n1)c1cc(CNC[C@@H]2CCCO2)cn(C2CC2)c1=O [Example 90, N-(4-{4-chloro-2-[(3,3-difluoro-1-azetidinyl)carbonyl]phenyl}-6-cyclopropyl-2-pyridyl)-5-[({[(S)-tetrahydro-2-furyl]methyl}amino)methyl]-1-cyclopropyl-2-oxo-1,2-dihydronicotinamide]"
5,< 100,CO[C@@H](C)CNCc1cc(C(=O)Nc2cc(-c3ccc(Cl)cc3C(=O)N3CC(F)(F)C3)cc(OCC(F)F)n2)c(=O)n(C2CC2)c1 [Example 83]
6,< 100,"N#Cc1ccc(-c2cc(NC(=O)c3cc(CNC[C@@H]4CCCO4)cn(CC(F)(F)F)c3=O)nc(C3CC3)c2)c(C(=O)N2CC(F)(F)C2)c1 [Example 93, N-[4-[4-cyano-2-(3,3-difluoroazetidine-1-carbonyl)phenyl]-6-cyclopropylpyridin-2-yl]-2-oxo-5-[[[(2S)-oxolan-2-yl]methylamino]methyl]-1-(2,2,2-trifluoroethyl)pyridine-3-carboxamide]"
7,< 100,"CO[C@@H](C)CNCc1cc(C(=O)Nc2cc(-c3ccc(OC(F)F)cc3C(=O)N3CC(F)(F)C3)cc(C3CC3)n2)c(=O)n(C2CC2)c1 [Example 89, N-(6-cyclopropyl-4-{2-[(3,3-difluoro-1-azetidinyl)carbonyl]-4-difluoromethoxyphenyl}-2-pyridyl)-5-{[(S)-2-methoxypropylamino]methyl}-1-cyclopropyl-2-oxo-1,2-dihydronicotinamide]"
8,< 100,"CC(C)Nc1cc(-c2ccc(Cl)cc2C(=O)N2CC(F)(F)C2)cc(NC(=O)c2cc(CNC[C@@H]3CCCO3)cn(C3CC3)c2=O)n1 [Example 92, N-(4-{4-chloro-2-[(3,3-difluoro-1-azetidinyl)carbonyl]phenyl}-6-(isopropylamino)-2-pyridyl)-5-[({[(S)-tetrahydro-2-furyl]methyl}amino)methyl]-1-cyclopropyl-2-oxo-1,2-dihydronicotinamide]"
9,< 100,"CCOc1cc(-c2ccc(Cl)cc2C(=O)N2CC(F)(F)C2)cc(NC(=O)c2cc(CNC[C@@H]3CCCO3)cn(C3CC3)c2=O)n1 [Example 91, N-(4-{4-chloro-2-[(3,3-difluoro-1-azetidinyl)carbonyl]phenyl}-6-ethoxy-2-pyridyl)-5-[({[(S)-tetrahydro-2-furyl]methyl}amino)methyl]-1-cyclopropyl-2-oxo-1,2-dihydronicotinamide]"
10,< 100,"COCCNCc1cc(C(=O)Nc2cc(-c3ccc(F)cc3C(=O)N3CC(F)C3)cc(C3CC3)n2)c(=O)n(C2CC2)c1 [Example 67, N-(6-cyclopropyl-4-{4-fluoro-2-[(3-fluoro-1-azetidinyl)carbonyl]phenyl}-2-pyridyl)-1-cyclopropyl-5-[(2-methoxyethylamino)methyl]-2-oxo-1,2-dihydronicotinamide]"
11,< 100,CO[C@@H](C)CNCc1cc(C(=O)Nc2cc(-c3ccc(Cl)cc3C(=O)N3CC(F)(F)C3)cc(OCC(F)(F)F)n2)c(=O)n(C2CC2)c1 [Example 82]
12,< 100,"Cn1cc(CNC[C@@H]2CCCO2)cc(C(=O)Nc2cc(-c3ccc(OC(F)F)cc3C(=O)N3CC(F)(F)C3)cc(C3CC3)n2)c1=O [Example 88, N-[6-cyclopropyl-4-[2-(3,3-difluoroazetidine-1-carbonyl)-4-(difluoromethoxy)phenyl]pyridin-2-yl]-1-methyl-2-oxo-5-[[[(2S)-oxolan-2-yl]methylamino]methyl]pyridine-3-carboxamide]"
13,< 100,"COCCNCc1cc(C(=O)Nc2cc(-c3ccc(F)cc3C(=O)N3CC(F)(F)C3)cc(C3CC3)n2)c(=O)n(C2CC2)c1 [Example 68, N-(6-cyclopropyl-4-{2-[(3,3-difluoro-1-azetidinyl)carbonyl]-4-fluorophenyl}-2-pyridyl)-1-cyclopropyl-5-[(2-methoxyethylamino)methyl]-2-oxo-1,2-dihydronicotinamide]"
14,< 100,"CC(C)CNCc1cc(C(=O)Nc2cc(-c3ccc(OC(F)F)cc3C(=O)N3CC(F)(F)C3)cc(C3CC3)n2)c(=O)n(C2CC2)c1 [Example 85, N-(6-cyclopropyl-4-{2-[(3,3-difluoro-1-azetidinyl)carbonyl]-4-difluoromethoxyphenyl}-2-pyridyl)-1-cyclopropyl-5-[(isobutylamino)methyl]-2-oxo-1,2-dihydronicotinamide]"
